The source of these data is patent publication US10100058B2, “Fused heterocyclic compounds as CaM kinase inhibitors” (Gilead Sciences, Inc., priority 2016, dated 2018).

This test has as its target recombinant CaMKIIδ (Homo sapiens (Human), UniProt Q13557). As to the kind of experiment: CaMKIIδ biochemical assay (HTRF). To be noted: 10 pM CaMKIIδ, 110 nM calmodulin, 12 μM ATP, 1 hour; read-out: CAMKIID-HTRF-384V2 (IC50 - nM). On the procedure: CaMKIIδ Biochemical Assay
The biochemical activity of recombinant CaMKIIδ was measured by monitoring the phosphorylation of a target peptide using Homogenous Time Resolved Fluorescence (HTRF) technology from CisBio Bioassays.
A general note: TR-FRET usually uses a lanthanide donor and a delayed reading to cut background.
Turning to `CCN(CC)[C@@H](C)CNC(=O)c1cc(-c2cnn3ccc(-c4cccs4)nc23)nc(N2CC[C@H]2C(=O)N(C)O)c1` [Example 298, N—((S)-2-(diethylamino)propyl)-2-((S)-2-(hydroxy(methyl)carbamoyl)azetidin-1-yl)-6-(5-(thiophen-2-yl)pyrazolo[1,5-a]pyrimidin-3-yl)isonicotinamide], the half-maximal inhibitory concentration (IC50) turned out to be 0.23 nM.
Turning to `CCN(CC)[C@@H](C)CNC(=O)c1cc(-c2cnn3ccc(-c4cccs4)nc23)nc(N2CC[C@H]2C(N)=O)c1` [Example 299, 2-((S)-2-carbamoylazetidin-1-yl)-N—((S)-2-(diethylamino)propyl)-6-(5-(thiophen-2-yl)pyrazolo[1,5-a]pyrimidin-3-yl)isonicotinamide], the half-maximal inhibitory concentration (IC50) is 0.22 nM.
Under `CCN(CC)[C@@H](C)CNC(=O)c1cc(-c2cnn3ccc(-c4cccs4)nc23)nc(N2CC[C@H]2C(=O)NCC#N)c1` [Example 300, 2-((S)-2-((cyanomethyl)carbamoyl)azetidin-1-yl)-N—((S)-2-(diethylamino)propyl)-6-(5-(thiophen-2-yl)pyrazolo[1,5-a]pyrimidin-3-yl)isonicotinamide] stands 0.58 nM.
In the case of `CCN(CC)[C@@H](C)CNC(=O)c1cc(-c2cnn3ccc(-c4cccs4)nc23)nc(N2CC[C@H]2C(=O)NCCOC)c1` [Example 301, N—((S)-2-(diethylamino)propyl)-2-((S)-2-((2-methoxyethyl)carbamoyl)azetidin-1-yl)-6-(5-(thiophen-2-yl)pyrazolo[1,5-a]pyrimidin-3-yl)isonicotinamide], the IC50 was 0.48 nM.
The value for `CCN(CC)[C@@H](C)CNC(=O)c1cc(-c2cnn3ccc(-c4cccs4)nc23)nc(N2CC[C@H]2C(=O)N2CC(S(C)(=O)=O)C2)c1` [Example 302, N—((S)-2-(diethylamino)propyl)-2-((S)-2-(3-(methylsulfonyl)azetidine-1-carbonyl)azetidin-1-yl)-6-(5-(thiophen-2-yl)pyrazolo[1,5-a]pyrimidin-3-yl)isonicotinamide] was 0.2 nM; that for `CCN(CC)[C@@H](C)CNC(=O)c1cc(-c2cnn3ccc(-c4cccs4)nc23)nc(N2CC[C@H]2C(=O)N2CCS(=O)(=O)CC2)c1` [Example 303, N—((S)-2-(diethylamino)propyl)-2-((S)-2-(1,1-dioxidothiomorpholine-4-carbonyl)azetidin-1-yl)-6-(5-(thiophen-2-yl)pyrazolo[1,5-a]pyrimidin-3-yl)isonicotinamide] was 0.16 nM.
For the molecule `CCN(CC)[C@@H](C)CNC(=O)c1cc(-c2cnn3ccc(-c4cccs4)nc23)nc(N2CC[C@H]2C(=O)N2CC(O)C2)c1` [Example 304, N—((S)-2-(diethylamino)propyl)-2-((S)-2-(3-hydroxyazetidine-1-carbonyl)azetidin-1-yl)-6-(5-(thiophen-2-yl)pyrazolo[1,5-a]pyrimidin-3-yl)isonicotinamide], the IC50 was 0.17 nM.
The value for `CNC(=O)[C@@H]1CCN1c1cc(C(=O)NC[C@H](C)N)cc(-c2cnn3ccc(-c4cccs4)nc23)n1` [Example 305, N—((S)-2-aminopropyl)-2-((S)-2-(methylcarbamoyl)azetidin-1-yl)-6-(5-(thiophen-2-yl)pyrazolo[1,5-a]pyrimidin-3-yl)isonicotinamide] was 51.7 nM; that for `CCN[C@@H](C)CNC(=O)c1cc(-c2cnn3ccc(-c4cccs4)nc23)nc(N2CC[C@H]2C(=O)NC)c1` [Example 306, N—((S)-2-(ethylamino)propyl)-2-((S)-2-(methylcarbamoyl)azetidin-1-yl)-6-(5-(thiophen-2-yl)pyrazolo[1,5-a]pyrimidin-3-yl)isonicotinamide] was 10.6 nM.
For `CCN(CC)[C@@H](C)CNC(=O)c1cc(-c2cnn3ccc(-c4ccns4)nc23)nc(N2CC[C@H]2C(=O)NC)c1` [Example 307, N—((S)-2-(diethylamino)propyl)-2-(5-(isothiazol-5-yl)pyrazolo[1,5-a]pyrimidin-3-yl)-6-((S)-2-(methylcarbamoyl)azetidin-1-yl)isonicotinamide], the IC50 stood at 0.27 nM.
`CCN(CC)[C@@H](C)CNC(=O)c1cc(-c2cnn3ccc(-c4cccs4)nc23)nc(N2CC[C@H]2c2nc(C)no2)c1` [Example 308, N—((S)-2-(diethylamino)propyl)-2-((S)-2-(3-methyl-1,2,4-oxadiazol-5-yl)azetidin-1-yl)-6-(5-(thiophen-2-yl)pyrazolo[1,5-a]pyrimidin-3-yl)isonicotinamide]: the IC50 was determined as 0.71 nM.
Regarding `CCN(CC)[C@@H](C)CNC(=O)c1cc(-c2cnn3ccc(-c4ccccc4)nc23)nc(N2CC[C@H]2C(=O)NC)c1` [Example 309, N—((S)-2-(diethylamino)propyl)-2-((S)-2-(methylcarbamoyl)azetidin-1-yl)-6-(5-phenylpyrazolo[1,5-a]pyrimidin-3-yl)isonicotinamide], the 50% inhibitory concentration (IC50) amounted to 2.16 nM.
Consider `CCN(CC)[C@@H](C)CNC(=O)c1cc(-c2cnn3ccc(-c4cccs4)nc23)nc(N2CC[C@H](C(=O)NC)C2)c1` [Example 310, N—((S)-2-(diethylamino)propyl)-2-((S)-3-(methylcarbamoyl)pyrrolidin-1-yl)-6-(5-(thiophen-2-yl)pyrazolo[1,5-a]pyrimidin-3-yl)isonicotinamide], for which the IC50 is 0.25 nM.
The value for `CCN(CC)[C@@H](C)CNC(=O)c1cc(-c2cnn3ccc(-c4cccs4)nc23)nc(N2CC[C@@H](C(=O)NC)C2)c1` [Example 311, N—((S)-2-(diethylamino)propyl)-2-((R)-3-(methylcarbamoyl)pyrrolidin-1-yl)-6-(5-(thiophen-2-yl)pyrazolo[1,5-a]pyrimidin-3-yl)isonicotinamide] was 0.23 nM; that for `CCN(CC)[C@@H](C)CNC(=O)c1cc(-c2cnn3ccc(-c4cccs4)nc23)nc(N2CC[C@@H](C#N)C2)c1` [Example 312, 2-((R)-3-cyanopyrrolidin-1-yl)-N—((S)-2-(diethylamino)propyl)-6-(5-(thiophen-2-yl)pyrazolo[1,5-a]pyrimidin-3-yl)isonicotinamide] was 0.21 nM; that for `CCN(CC)[C@@H](C)CNC(=O)c1cc(-c2cnn3ccc(-c4cccs4)nc23)nc(N2CCNC(=O)C2)c1` [Example 314, (S)—N-(2-(diethylamino)propyl)-2-(3-oxopiperazin-1-yl)-6-(5-(thiophen-2-yl)pyrazolo[1,5-a]pyrimidin-3-yl)isonicotinamide] was 0.14 nM.
In the case of `CCN(CC)[C@@H](C)CNC(=O)c1cc(-c2cnn3ccc(-c4cccs4)nc23)nc(N2CC[C@H](N)C2)c1` [Example 317, 2-((S)-3-aminopyrrolidin-1-yl)-N—((S)-2-(diethylamino)propyl)-6-(5-(thiophen-2-yl)pyrazolo[1,5-a]pyrimidin-3-yl)isonicotinamide], the IC50 stood at 0.07 nM.
Consider `CCN(CC)[C@@H](C)CNC(=O)c1cc(-c2cnn3ccc(-c4cccs4)nc23)nc(N2CC[C@@H](N)C2)c1` [Example 318, 2-((R)-3-aminopyrrolidin-1-yl)-N—((S)-2-(diethylamino)propyl)-6-(5-(thiophen-2-yl)pyrazolo[1,5-a]pyrimidin-3-yl)isonicotinamide], for which the IC50 was determined as 0.05 nM.
For the molecule `CCN(CC)[C@@H](C)CNC(=O)c1cc(-c2cnn3ccc(-c4cccs4)nc23)nc(N2CCC[C@H]2C(=O)NC)c1` [Example 319, N—((S)-2-(diethylamino)propyl)-2-((S)-2-(methylcarbamoyl)pyrrolidin-1-yl)-6-(5-(thiophen-2-yl)pyrazolo[1,5-a]pyrimidin-3-yl)isonicotinamide], the half-inhibitory concentration (IC50) was 3.02 nM.
Under `CCN(CC)[C@@H](C)CNC(=O)c1cc(-c2cnn3ccc(-c4cccs4)nc23)nc(N2CCC[C@@H]2C(=O)NC)c1` [Example 320, N—((S)-2-(diethylamino)propyl)-2-((R)-2-(methylcarbamoyl)pyrrolidin-1-yl)-6-(5-(thiophen-2-yl)pyrazolo[1,5-a]pyrimidin-3-yl)isonicotinamide] stands 32.8 nM.
Turning to `CC(C)(O)CNc1cc(C(=O)N2CC3CCC(C2)NC3)cc(-c2cnn3ccc(-c4cccs4)nc23)n1` (centres unmarked) [Example 322, (-3,6-diazabicyclo[3.2.2]nonan-3-yl)(2-((2-hydroxy-2-methylpropyl)amino)-6-(5-(thiophen-2-yl)pyrazolo[1,5-a]pyrimidin-3-yl)pyridin-4-yl)methanone], the IC50 amounted to 5.01 nM.
Under `COCCNc1cc(C(=O)N2CC3CCC(C2)NC3)cc(-c2cnn3ccc(-c4cccs4)nc23)n1` (centres unmarked) [Example 323, (-3,6-diazabicyclo[3.2.2]nonan-3-yl)(2-((2-methoxyethyl)amino)-6-(5-(thiophen-2-yl)pyrazolo[1,5-a]pyrimidin-3-yl)pyridin-4-yl)methanone] stands 3.22 nM.
The value for `O=C(c1cc(-c2cnn3ccc(-c4cccs4)nc23)nc(N2CCN(C3COC3)CC2)c1)N1CC2CCC(C1)NC2` (centres unmarked) [Example 324, (-3,6-diazabicyclo[3.2.2]nonan-3-yl)(2-(4-(oxetan-3-yl)piperazin-1-yl)-6-(5-(thiophen-2-yl)pyrazolo[1,5-a]pyrimidin-3-yl)pyridin-4-yl)methanone] was 3.59 nM; that for `COC1CN(c2cc(C(=O)N3CC4CCC(C3)NC4)cc(-c3cnn4ccc(-c5cccs5)nc34)n2)C1` (centres unmarked) [Example 325, (-3,6-diazabicyclo[3.2.2]nonan-3-yl)(2-(3-methoxyazetidin-1-yl)-6-(5-(thiophen-2-yl)pyrazolo[1,5-a]pyrimidin-3-yl)pyridin-4-yl)methanone] was 2.19 nM; that for `COC1CN(c2cc(C(=O)N3[C@H]4CCNC[C@@H]3CC4)cc(-c3cnn4ccc(-c5cccs5)nc34)n2)C1` [Example 326, ((1S,6R)-3,9-diazabicyclo[4.2.1]nonan-9-yl)(2-(3-methoxyazetidin-1-yl)-6-(5-(thiophen-2-yl)pyrazolo[1,5-a]pyrimidin-3-yl)pyridin-4-yl)methanone] was 3.29 nM.
The value for `COC1CN(c2cc(C(=O)N3CC[C@H](N)C3)cc(-c3cnn4ccc(-c5ccccc5)nc34)n2)C1` [Example 328, (S)-(3-aminopyrrolidin-1-yl)(2-(3-methoxyazetidin-1-yl)-6-(5-phenylpyrazolo[1,5-a]pyrimidin-3-yl)pyridin-4-yl)methanone] was 91.9 nM.

One may read the IC50 as the concentration at which inhibition is half-maximal.
